Reference: ChEMBL document CHEMBL4342404, “Anti-cholinesterase hybrids as multi-target-directed ligands against Alzheimer's disease (1998-2018)” (Bioorg Med Chem, 2019)

Legend:
[1] = biological target: T1, Acetylcholinesterase (Homo sapiens, UniProt P22303)
[2] = biological target: T2, Cholinesterase (Homo sapiens, UniProt P06276); test: Inhibition of human butyrylcholinesterase
[3] = biological target: T3, Acetylcholinesterase (Electrophorus electricus, UniProt O42275); test: Inhibition of electric eel AChE using acetylthiocholine iodide as substrate incubated for 15 mins by Ellman's method
[4] = biological target: Butyrylcholinesterase (Rattus norvegicus) (UniProt Q9JKC1); test: Inhibition of rat serum butyrylcholinesterase using butyrylthiocholine iodide as substrate at 50 uM incubated for 15 mins by Ellman's method relative to control
[5] = Antioxidant activity assessed as trolox equivalent of AAPH radical scavenging activity at 10 uM preincubated for 10 mins followed by APPH addition and measured every min for 120 mins by ORAC-FL assay relative to trolox; assay type: functional
[6] = biological target: Amyloid-beta precursor protein (Homo sapiens) (UniProt P05067); test: Inhibition of HFIP pretreated amyloid beta (1-42) (unknown origin) self aggregation at 20 uM incubated for 48 hrs by thioflavin T based fluorescence assay relative to control
[7] = biological target: T1, Acetylcholinesterase; test: Inhibition of human Acetylcholinesterase using acetylthiocholine as substrate preincubated for 20 mins followed by substrate addition by Ellman's method
[8] = biological target: T4, Beta-secretase 1 (Homo sapiens, UniProt P56817); test: Inhibition human BACE1 expressed in baculovirus expression system using Panvera peptide as substrate preincubated for 60 mins followed by substrate addition and measured after 60 mins by spectrofluorometric assay
[9] = biological target: T1, Acetylcholinesterase; test: Inhibition of human AChE-induced amyloid beta 1 to 40 (unknown origin) aggregation at 100 uM by thioflavin-T fluorescence method relative to control
[10] = biological target: T4, Beta-secretase 1; test: Inhibition human BACE1 expressed in baculovirus expression system at 10 uM using Panvera peptide as substrate preincubated for 60 mins followed by substrate addition and measured after 60 mins by spectrofluorometric assay relative to control
[11] = biological target: Amyloid-beta precursor protein (Homo sapiens) (UniProt P05067); test: Inhibition of HFIP pretreated amyloid beta (1-42) (unknown origin) self aggregation at 10 uM incubated for 24 hrs by thioflavin T based fluorescence assay relative to control
[12] = biological target: T2, Cholinesterase; test: Inhibition of human serum butyrylcholinesterase using butyrylthiocholine iodide as substrate preincubated for 20 mins followed by substrate addition by Ellman's method
[13] = biological target: T5, Acetylcholinesterase (Bos taurus, UniProt P23795)
T5 sequence (P23795 whole entry): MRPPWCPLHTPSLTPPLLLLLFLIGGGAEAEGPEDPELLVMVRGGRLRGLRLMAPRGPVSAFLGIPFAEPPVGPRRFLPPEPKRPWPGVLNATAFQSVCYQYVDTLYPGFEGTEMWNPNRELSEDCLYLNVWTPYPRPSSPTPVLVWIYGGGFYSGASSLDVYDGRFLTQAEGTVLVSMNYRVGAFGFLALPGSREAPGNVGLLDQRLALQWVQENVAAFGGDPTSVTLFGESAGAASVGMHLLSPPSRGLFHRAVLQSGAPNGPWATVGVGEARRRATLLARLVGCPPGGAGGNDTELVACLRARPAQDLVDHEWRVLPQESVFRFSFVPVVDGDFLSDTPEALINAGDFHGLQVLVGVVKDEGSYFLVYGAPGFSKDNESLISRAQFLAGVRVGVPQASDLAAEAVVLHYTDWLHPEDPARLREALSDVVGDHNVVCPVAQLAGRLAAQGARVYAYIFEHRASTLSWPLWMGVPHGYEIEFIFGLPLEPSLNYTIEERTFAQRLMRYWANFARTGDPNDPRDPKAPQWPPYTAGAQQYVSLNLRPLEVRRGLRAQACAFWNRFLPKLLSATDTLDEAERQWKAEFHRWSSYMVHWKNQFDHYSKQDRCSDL
Description: Inhibition of bovine erythrocyte acetylcholinesterase using acetylthiocholine as substrate incubated for 15 mins by Ellman's method

[14] = biological target: T2, Cholinesterase; test: Inhibition of human butyrylcholinesterase by Ellman's method
[15] = biological target: T1, Acetylcholinesterase; test: Inhibition of human acetylcholinesterase by Ellman's method
[16] = biological target: Amine oxidase [flavin-containing] B (Homo sapiens, UniProt P27338); test: Inhibition of recombinant human MAO-B using p-tyramine as substrate preincubated for 15 mins followed by substrate addition and measured over 15 mins by Amplex red reagent/horseradish peroxidase coupled fluorescence assay
[17] = biological target: T2, Cholinesterase; test: Inhibition of human butyrylcholinesterase using butyrylthiocholine iodide as substrate pretreated followed by substrate addition and measured after 15 mins by Ellman's method
[18] = biological target: T3, Acetylcholinesterase; test: Inhibition of electric eel AChE using acetylthiocholine iodide as substrate pretreated followed by substrate addition and measured after 2 mins by Ellman's method
[19] = biological target: T6, Cholinesterase (Equus caballus, UniProt P81908); test: Inhibition of equine serum BuChE using butyrylthiocholine iodide as substrate pretreated followed by substrate addition and measured after 2 mins by Ellman's method
[20] = species: Homo sapiens; test: Selectivity index, ratio of IC50 for human AChE to IC50 for human BuChE
[21] = biological target: T1, Acetylcholinesterase; test: Inhibition of human acetylcholinesterase using acetylthiocholine as substrate pretreated followed by substrate addition and measured after 15 mins by Ellman's method
[22] = biological target: T1, Acetylcholinesterase; test: biochemical
Description: Inhibition of human acetylcholinesterase expressed in HEK 293 cells using acetylthiocholine iodide as substrate by Ellman's method

[23] = biological target: T2, Cholinesterase; test: Inhibition of human plasma butyrylcholinesterase by Ellman's method
[24] = biological target: Histamine H3 receptor (Homo sapiens, UniProt Q9Y5N1); test: biochemical
Description: Displacement of [3H]-N-alpha-methylhistamine from human H3R expressed in HEK293 cell membranes incubated for 90 mins by liquid scintillation counting method

[25] = biological target: Amine oxidase [flavin-containing] A (Homo sapiens, UniProt P21397)
Description: Inhibition of recombinant human MAOA expressed in baculovirus infected BTI insect cells using p-tyramine as substrate preincubated for 30 mins followed by substrate addition by Amplex red reagent/horseradish peroxidase coupled fluorescence assay

[26] = biological target: T7, Acetylcholinesterase (Rattus norvegicus, UniProt P37136); test: Antagonist activity at Acetylcholinesterase in Sprague-Dawley rat phrenic nerve-hemidiaphragm assessed as reversal of d-tubocurarine induced neuromuscular blockade after 15 mins; settings: read-out: I50
T7 sequence (P37136 whole entry): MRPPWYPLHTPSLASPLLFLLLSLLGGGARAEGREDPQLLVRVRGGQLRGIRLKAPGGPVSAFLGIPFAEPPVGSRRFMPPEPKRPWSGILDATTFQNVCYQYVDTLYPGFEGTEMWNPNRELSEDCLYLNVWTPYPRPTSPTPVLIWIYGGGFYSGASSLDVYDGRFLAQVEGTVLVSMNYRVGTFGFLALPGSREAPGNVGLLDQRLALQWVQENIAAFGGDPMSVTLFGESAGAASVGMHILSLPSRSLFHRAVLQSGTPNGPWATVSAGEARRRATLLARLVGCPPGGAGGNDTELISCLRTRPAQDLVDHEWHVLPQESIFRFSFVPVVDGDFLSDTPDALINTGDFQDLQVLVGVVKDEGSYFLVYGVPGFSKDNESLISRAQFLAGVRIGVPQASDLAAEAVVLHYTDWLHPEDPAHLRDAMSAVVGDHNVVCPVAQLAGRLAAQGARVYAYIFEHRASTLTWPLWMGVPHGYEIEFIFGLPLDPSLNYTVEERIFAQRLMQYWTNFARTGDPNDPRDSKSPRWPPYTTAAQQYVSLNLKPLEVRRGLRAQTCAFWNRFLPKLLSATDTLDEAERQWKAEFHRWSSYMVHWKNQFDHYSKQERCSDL

[27] = biological target: T5, Acetylcholinesterase; remark: listed apart in the source
Description: Inhibition of bovine erythrocyte acetylcholinesterase using acetylthiocholine as substrate by Ellman's method

[28] = biological target: T1, Acetylcholinesterase; test: Inhibition of AChE (unknown origin)-induced human amyloid beta 1 to 40 aggregation at 100 uM by thioflavin-T fluorescence method relative to control
[29] = biological target: T3, Acetylcholinesterase; test: Inhibition of electric eel AChE using acetylthiocholine iodide as substrate preincubated for 6 mins followed by substrate addition and measured up to 180 secs by Ellman's method
[30] = biological target: T6, Cholinesterase; test: Inhibition of equine serum BuChE using S-butyrylthiocholine iodide as substrate preincubated for 6 mins followed by substrate addition and measured up to 180 secs by Ellman's method
[31] = biological target: T6, Cholinesterase; test: Inhibition of equine serum BuChE using butyrylthiocholine iodide as substrate pretreated 60 mins followed by substrate addition by Ellman's method
[32] = biological target: T1, Acetylcholinesterase; test: Inhibition of human erythrocyte acetylcholinesterase using acetylthiocholine as substrate preincubated for 60 mins followed by substrate addition by Ellman's method
[33] = tested on: Rattus norvegicus; test: In vivo inhibition of MAO-B in Sprague-Dawley rat at 26 mg/kg, po administered for 2 weeks by radioassay method relative to control; assay type: functional; settings: 336 h
[34] = tested on: Rattus norvegicus; test: In vivo inhibition of MAO-A in Sprague-Dawley rat at 26 mg/kg, po administered for 2 weeks by radioassay method relative to control; assay type: functional; settings: 336 h
[35] = biological target: 5-hydroxytryptamine receptor 1A (Homo sapiens, UniProt P08908); test: Agonist activity at human 5H1A receptor expressed in HEK293 cells incubated for 60 mins by Eu-cAMP tracer based LANCE ultra cAMP assay; assay type: functional, cell-based
[36] = biological target: Sodium-dependent serotonin transporter (Homo sapiens, UniProt P31645); test: Inhibition of SERT (unknown origin) expressed in HEK293 cells assessed as reduction in 5-HT reuptake incubated for 30 mins followed by centrifugation for 15 secs and measured after 30 mins; assay type: cell-based
[37] = biological target: T7, Acetylcholinesterase; test: Inhibition of rat cortex acetylcholinesterase using acetylthiocholine iodide as substrate incubated for 20 mins by Ellman's method
[38] = biological target: T3, Acetylcholinesterase; test: Inhibition of electric eel AChE using acetylthiocholine iodide as substrate pretreated for 5 mins followed by substrate addition and measured after 2 mins by Ellman's method
[39] = biological target: T2, Cholinesterase; test: Inhibition of human serum butyrylcholinesterase using butyrylthiocholine iodide as substrate preincubated for 20 mins followed by substrate addition preincubated for 20 mins followed by substrate addition by Ellman's method
[40] = Cytotoxicity against human HepG2 cells assessed as cell viability at 1000 uM by MTT assay relative to control; assay type: cell-based; settings: read-out: Activity
[41] = Antioxidant activity assessed as AAPH radical scavenging activity measured every min for 60 mins by ORAC-FL assay relative to trolox; assay type: functional
[42] = biological target: T6, Cholinesterase
Description: Inhibition of equine serum BuChE preincubated for 15 mins followed by substrate addition and measured after 15 mins by Ellman's method

[43] = biological target: T3, Acetylcholinesterase
Description: Inhibition of electric eel AChE using acetylthiocholine iodide as substrate preincubated for 15 mins followed by substrate addition and measured after 15 mins by Ellman's method

[44] = biological target: Acetylcholinesterase (Rattus norvegicus) (UniProt P37136); test: Inhibition of acetylcholinesterase in Wistar rat primary cortical neuron cells assessed as reduction in amyloidbeta40 level at […] incubated for 24 hrs by ELISA relative to control

T3 sequence (O42275 whole entry): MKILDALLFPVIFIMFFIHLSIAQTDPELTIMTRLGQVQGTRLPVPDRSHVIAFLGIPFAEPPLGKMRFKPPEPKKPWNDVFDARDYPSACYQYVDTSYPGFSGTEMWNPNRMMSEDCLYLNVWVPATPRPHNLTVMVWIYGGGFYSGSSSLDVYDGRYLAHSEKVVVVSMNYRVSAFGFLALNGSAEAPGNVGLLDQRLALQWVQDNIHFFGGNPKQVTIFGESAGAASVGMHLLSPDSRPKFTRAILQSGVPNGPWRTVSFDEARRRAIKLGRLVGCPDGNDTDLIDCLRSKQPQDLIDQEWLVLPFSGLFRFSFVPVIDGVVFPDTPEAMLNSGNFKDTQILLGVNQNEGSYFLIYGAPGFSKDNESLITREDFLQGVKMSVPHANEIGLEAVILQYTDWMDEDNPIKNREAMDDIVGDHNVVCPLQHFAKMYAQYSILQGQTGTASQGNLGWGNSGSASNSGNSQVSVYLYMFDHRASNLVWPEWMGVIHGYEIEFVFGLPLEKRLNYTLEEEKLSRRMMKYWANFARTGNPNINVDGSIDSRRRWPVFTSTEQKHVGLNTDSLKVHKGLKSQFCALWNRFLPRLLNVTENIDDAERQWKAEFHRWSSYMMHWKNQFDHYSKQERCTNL
T2 sequence (P06276 whole entry): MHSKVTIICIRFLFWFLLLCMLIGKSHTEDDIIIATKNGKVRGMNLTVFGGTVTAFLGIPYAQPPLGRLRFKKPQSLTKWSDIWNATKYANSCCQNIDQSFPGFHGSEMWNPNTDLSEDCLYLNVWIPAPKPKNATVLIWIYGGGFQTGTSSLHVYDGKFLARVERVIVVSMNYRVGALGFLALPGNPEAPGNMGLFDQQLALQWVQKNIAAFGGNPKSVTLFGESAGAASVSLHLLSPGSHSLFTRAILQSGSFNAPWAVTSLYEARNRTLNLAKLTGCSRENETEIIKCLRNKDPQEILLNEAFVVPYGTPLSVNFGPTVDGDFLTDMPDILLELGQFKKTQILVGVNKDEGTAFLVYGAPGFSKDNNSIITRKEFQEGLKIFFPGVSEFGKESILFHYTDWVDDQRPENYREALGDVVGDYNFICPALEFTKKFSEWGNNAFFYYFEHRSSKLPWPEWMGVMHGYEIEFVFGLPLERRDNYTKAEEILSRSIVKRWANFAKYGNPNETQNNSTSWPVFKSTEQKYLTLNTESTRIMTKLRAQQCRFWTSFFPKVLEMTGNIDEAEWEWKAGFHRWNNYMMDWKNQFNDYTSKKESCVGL
T6 sequence (P81908 whole entry): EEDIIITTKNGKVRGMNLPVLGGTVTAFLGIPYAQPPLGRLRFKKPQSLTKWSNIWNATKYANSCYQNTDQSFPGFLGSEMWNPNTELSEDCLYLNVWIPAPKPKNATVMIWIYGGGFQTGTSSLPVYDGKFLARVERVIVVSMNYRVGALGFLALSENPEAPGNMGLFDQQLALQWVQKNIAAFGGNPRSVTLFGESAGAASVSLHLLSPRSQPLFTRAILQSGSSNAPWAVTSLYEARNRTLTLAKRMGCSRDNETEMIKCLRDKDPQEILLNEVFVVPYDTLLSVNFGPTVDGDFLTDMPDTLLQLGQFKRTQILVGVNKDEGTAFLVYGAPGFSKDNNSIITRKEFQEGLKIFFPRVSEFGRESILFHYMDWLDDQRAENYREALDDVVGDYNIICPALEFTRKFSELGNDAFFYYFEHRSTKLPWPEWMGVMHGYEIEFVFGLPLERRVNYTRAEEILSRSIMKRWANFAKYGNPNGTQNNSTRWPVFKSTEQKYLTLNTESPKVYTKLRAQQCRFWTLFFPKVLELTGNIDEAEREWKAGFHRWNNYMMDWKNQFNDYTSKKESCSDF
T1 sequence (P22303 whole entry): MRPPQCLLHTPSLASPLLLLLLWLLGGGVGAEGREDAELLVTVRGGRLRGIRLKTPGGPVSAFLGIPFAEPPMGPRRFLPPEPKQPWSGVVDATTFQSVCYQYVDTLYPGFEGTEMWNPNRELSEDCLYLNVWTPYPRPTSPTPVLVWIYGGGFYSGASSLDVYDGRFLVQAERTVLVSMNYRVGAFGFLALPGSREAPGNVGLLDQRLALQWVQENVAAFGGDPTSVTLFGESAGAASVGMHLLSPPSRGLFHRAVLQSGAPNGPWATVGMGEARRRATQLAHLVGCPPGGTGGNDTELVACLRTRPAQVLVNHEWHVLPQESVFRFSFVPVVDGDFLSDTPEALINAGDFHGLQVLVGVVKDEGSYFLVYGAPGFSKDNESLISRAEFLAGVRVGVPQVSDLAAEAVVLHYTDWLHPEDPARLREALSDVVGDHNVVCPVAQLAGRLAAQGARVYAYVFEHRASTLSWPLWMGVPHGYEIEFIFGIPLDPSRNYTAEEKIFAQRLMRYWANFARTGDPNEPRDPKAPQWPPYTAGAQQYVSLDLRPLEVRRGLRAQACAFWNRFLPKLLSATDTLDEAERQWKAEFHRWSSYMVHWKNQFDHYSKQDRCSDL
Sequence of Amyloid-beta precursor protein (Homo sapiens) (P05067 whole entry): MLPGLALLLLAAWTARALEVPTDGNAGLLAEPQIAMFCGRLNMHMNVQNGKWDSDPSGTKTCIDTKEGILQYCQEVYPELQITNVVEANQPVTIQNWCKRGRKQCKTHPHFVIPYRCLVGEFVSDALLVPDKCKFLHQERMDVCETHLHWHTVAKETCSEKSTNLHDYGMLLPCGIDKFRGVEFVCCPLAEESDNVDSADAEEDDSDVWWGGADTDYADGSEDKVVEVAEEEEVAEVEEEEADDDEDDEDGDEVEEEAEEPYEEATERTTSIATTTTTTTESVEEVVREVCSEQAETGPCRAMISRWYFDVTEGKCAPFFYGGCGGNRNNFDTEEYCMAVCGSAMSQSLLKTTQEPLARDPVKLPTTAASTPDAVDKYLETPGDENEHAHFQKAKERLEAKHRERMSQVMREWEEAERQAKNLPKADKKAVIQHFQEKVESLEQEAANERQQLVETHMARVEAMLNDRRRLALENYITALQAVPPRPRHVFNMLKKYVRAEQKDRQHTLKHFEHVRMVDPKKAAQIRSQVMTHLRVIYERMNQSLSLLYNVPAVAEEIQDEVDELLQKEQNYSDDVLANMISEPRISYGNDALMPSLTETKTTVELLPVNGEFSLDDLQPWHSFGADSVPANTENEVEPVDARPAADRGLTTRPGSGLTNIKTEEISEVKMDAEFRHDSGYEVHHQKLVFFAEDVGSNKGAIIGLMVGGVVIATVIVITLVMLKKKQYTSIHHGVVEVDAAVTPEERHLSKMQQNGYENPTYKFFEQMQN
T4 sequence (P56817 whole entry): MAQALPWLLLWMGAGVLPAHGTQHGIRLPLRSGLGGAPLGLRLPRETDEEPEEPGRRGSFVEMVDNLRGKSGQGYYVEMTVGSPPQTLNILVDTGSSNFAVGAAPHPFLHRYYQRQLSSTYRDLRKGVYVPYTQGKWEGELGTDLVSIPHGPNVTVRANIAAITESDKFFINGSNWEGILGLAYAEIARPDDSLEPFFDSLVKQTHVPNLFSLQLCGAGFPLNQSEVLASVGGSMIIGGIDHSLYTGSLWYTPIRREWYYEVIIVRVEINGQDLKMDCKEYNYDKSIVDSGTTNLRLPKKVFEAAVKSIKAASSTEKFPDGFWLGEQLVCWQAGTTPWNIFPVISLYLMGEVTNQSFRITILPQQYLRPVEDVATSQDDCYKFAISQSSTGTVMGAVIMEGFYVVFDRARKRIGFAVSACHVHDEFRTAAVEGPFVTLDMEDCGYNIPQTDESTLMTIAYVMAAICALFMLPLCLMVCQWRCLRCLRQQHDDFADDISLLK
Sequence of 5-hydroxytryptamine receptor 1A (P08908 whole entry): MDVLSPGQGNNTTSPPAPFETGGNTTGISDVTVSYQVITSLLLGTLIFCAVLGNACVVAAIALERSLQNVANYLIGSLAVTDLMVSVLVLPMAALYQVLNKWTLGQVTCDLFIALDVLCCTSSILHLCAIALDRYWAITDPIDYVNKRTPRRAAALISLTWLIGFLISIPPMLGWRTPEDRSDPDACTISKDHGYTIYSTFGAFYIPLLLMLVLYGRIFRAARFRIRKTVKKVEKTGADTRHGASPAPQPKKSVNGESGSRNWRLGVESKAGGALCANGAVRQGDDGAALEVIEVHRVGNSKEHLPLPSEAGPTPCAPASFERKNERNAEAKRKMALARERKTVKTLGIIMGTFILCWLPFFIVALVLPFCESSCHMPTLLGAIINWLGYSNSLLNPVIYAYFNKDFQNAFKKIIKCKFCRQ
Sequence of Amine oxidase [flavin-containing] A (P21397 whole entry): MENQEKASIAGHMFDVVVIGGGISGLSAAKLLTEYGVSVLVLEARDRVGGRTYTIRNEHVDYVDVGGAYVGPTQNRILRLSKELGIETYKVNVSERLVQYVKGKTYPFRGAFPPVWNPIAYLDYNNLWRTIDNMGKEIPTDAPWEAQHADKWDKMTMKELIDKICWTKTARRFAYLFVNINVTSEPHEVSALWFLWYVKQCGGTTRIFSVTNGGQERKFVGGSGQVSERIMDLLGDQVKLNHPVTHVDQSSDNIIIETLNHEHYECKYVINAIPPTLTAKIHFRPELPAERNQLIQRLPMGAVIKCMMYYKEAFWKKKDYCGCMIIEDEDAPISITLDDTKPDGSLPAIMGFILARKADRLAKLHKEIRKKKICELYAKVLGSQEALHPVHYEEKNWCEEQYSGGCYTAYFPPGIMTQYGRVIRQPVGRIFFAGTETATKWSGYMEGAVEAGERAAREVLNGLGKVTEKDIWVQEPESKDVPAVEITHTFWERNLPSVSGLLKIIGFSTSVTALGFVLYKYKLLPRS

## COc1ccc2[nH]cc(CCNC(=O)CN(CCCC3CCN(Cc4ccccc4)CC3)C(=O)/C=C/c3ccc(O)c(OC)c3)c2c1
[1]
  IC50: 26.2 nM
[2]
  IC50: 17.5 nM

## CCN(CC)Cc1ccc(/C=C/c2cnc(C)c(O)c2CO)cc1O
[3]
  IC50: 2110 nM
[4]
  inhibition: 16.7%

## Oc1ccc(/C=C/c2cc(O)c3ncccc3c2)cc1
[5]
  Ratio (umolequiv/umol): 2.18
[6]
  inhibition: 71.7%

## c1ccc2c(NCc3ccc(-c4ccc(CNc5c6c(nc7ccccc57)CCCC6)cc4)cc3)c3c(nc2c1)CCCC3
[7]
  IC50: 3.61 nM
[8]
  IC50: 2770 nM
[9]
  inhibition: 61.8%
[10]
  inhibition: 89.7%
[11]
  inhibition: 75.5%
[12]
  IC50: 0.86 nM

## CC1=CC2Cc3nc4cc(Cl)ccc4c(N)c3C(C1)C2 (single isomer, unassigned; (+)) [HUPRINE Y]
[13]
  IC50: 36.1 nM

## Cc1cc(=O)oc2cc(OC/C=C/CCn3cnc4c(N5CCCC5)ncnc43)ccc12
[14]
  IC50: 4650 nM

## Cc1cc(=O)oc2ccc(OC/C=C/CCn3cnc4c(N5CCCCC5)ncnc43)cc12
[15]
  IC50: 11900 nM
[16]
  IC50: 6800 nM

## COc1cc(/C=C/C(=O)NCCNc2c3c(nc4ccccc24)CCCC3)ccc1OCc1ccccc1
[17]
  IC50: 55.9 nM
[18]
  IC50: 15.8 nM
[19]
  IC50: 52.6 nM
[20]
  Selectivity Index: 1
[21]
  IC50: 55.1 nM

## C#CCN(C)Cc1cc2cc(OCCCC3CCN(Cc4ccccc4)CC3)ccc2n1C
[22]
  IC50: 810 nM
[23]
  IC50: 1820 nM
[24]
  Ki: 84.2 nM
[25]
  IC50: 0.27 nM

## CC1=C[C@@H]2Cc3nc4cc(F)ccc4c(N)c3[C@H](C1)C2 (racemic)
[26]
  IC50: 8 nM
[27]
  IC50: 85 nM

## O=C(NCCCCCCNc1c2c(nc3ccccc13)CCCC2)c1cc(O)c2c(c1)C(=O)c1cccc(O)c1C2=O
[28]
  inhibition: 70.2%
[29]
  IC50: 27.3 nM
[30]
  IC50: 200 nM

## C#CCN(C)C(C)Cc1cccc(OC(=O)N(C)CCCCCC)c1 (racemic)
[31]
  IC50: 720 nM

## C#CCN(C)C(C)Cc1cccc(OC(=O)N(C)CCCCCC)c1 (single isomer, unassigned; (+))
[32]
  IC50: 2000 nM

## C#CCN[C@@H]1CCc2ccc(OC(=O)N(C)CC)cc21 [LADOSTIGIL]
[33]
  inhibition in vivo at 26 mg/kg: 71%
[34]
  inhibition in vivo at 26 mg/kg: 66%

## N#Cc1ccc2[nH]cc(CCCCN3CCN(c4c5c(nc6ccccc46)CCC5)CC3)c2c1
[35]
  EC50: 107 nM
[36]
  IC50: 76.3 nM
[37]
  IC50: 3320 nM

## C#CCN(C)C(C)Cc1cccc(OC(=O)N(C)CCCCCC)c1 (single isomer, unassigned; (-))
[32]
  IC50: 3400 nM

## CN(C)C(=O)Oc1ccccc1-c1nc2ccccc2s1
[38]
  IC50: 20900 nM

## COc1ccc2[nH]cc(CCNC(=O)CN(CCC3CCN(Cc4ccccc4)CC3)C(=O)/C=C/c3ccc(O)c(OC)c3)c2c1
[1]
  IC50: 30.7 nM
[2]
  IC50: 21.8 nM

## COc1ccc2nc3c(c(NCCCCCCCCN(CC(=O)Nc4ccc5ccccc5c4)C(=O)/C=C/c4ccc(O)c(OC)c4)c2c1)CCCC3
[39]
  IC50: 68.2 nM
[40]
  viability at 1000 µM: 59.4%
[41]
  Ratio: 4.29

## O=C(c1ccc(OCCCc2cnc[nH]2)cc1)C1CC1 [CIPROXIFAN]
[22]
  IC50: 86100 nM
[23]
  IC50: 77300 nM

## C/C=C1\C2C=C(C)CC1c1c(nc3ccccc3c1N)C2 (racemic)
[27]
  IC50: 320 nM

## O=C(NCCc1c[nH]c2ccccc12)c1cc(-c2ccccc2Cl)on1
[42]
  IC50: 46100 nM
[43]
  IC50: 29500 nM

## O=C(/C=C/c1ccc(OCc2ccccc2)cc1)NCCNc1c2c(nc3ccccc13)CCCC2
[17]
  IC50: 86.1 nM
[18]
  IC50: 29.5 nM
[19]
  IC50: 42.6 nM
[20]
  Selectivity Index: 0.7
[21]
  IC50: 60.6 nM

## CC(C(=O)NCCCCCCNc1c2c(nc3ccccc13)CCCC2)c1ccc(-c2ccccc2)c(F)c1 (stereo not given)
[44]
  inhibition: 31%
